Values of other authors, collected in patent US12121591B2, “Sulfur-containing ionizable lipids for the delivery of nucleic acids and other therapeutic agents” (NanoVation Therapeutics Inc., priority 2022, dated 2024).

Settings: delivery of siRNA, relative to KC2

SMILES: CCCCC/C=C\C/C=C\CCCCCCCCC(CCCCCCCC/C=C\C/C=C\CCCCC)OC(=O)CCCN(C)C [MC3]
- siRNA required, times less than KC2: about 3 times
